SMILES strings stand for the structures. Like-named read-outs stand apart in the source and are kept apart here.

The values below come from patent US20140088085A1, “Substituted Benzoazepines As Toll-Like Receptor Modulators” (ARRAY BIOPHARMA, INC, priority 2011, published 2014).

This test has as its target T1, hTLR8 (Homo sapiens, UniProt Q9NR97).
T1 construct: host or cells: HEK293 cells stably transfected with hTLR8
T1 sequence (Q9NR97 27-1041): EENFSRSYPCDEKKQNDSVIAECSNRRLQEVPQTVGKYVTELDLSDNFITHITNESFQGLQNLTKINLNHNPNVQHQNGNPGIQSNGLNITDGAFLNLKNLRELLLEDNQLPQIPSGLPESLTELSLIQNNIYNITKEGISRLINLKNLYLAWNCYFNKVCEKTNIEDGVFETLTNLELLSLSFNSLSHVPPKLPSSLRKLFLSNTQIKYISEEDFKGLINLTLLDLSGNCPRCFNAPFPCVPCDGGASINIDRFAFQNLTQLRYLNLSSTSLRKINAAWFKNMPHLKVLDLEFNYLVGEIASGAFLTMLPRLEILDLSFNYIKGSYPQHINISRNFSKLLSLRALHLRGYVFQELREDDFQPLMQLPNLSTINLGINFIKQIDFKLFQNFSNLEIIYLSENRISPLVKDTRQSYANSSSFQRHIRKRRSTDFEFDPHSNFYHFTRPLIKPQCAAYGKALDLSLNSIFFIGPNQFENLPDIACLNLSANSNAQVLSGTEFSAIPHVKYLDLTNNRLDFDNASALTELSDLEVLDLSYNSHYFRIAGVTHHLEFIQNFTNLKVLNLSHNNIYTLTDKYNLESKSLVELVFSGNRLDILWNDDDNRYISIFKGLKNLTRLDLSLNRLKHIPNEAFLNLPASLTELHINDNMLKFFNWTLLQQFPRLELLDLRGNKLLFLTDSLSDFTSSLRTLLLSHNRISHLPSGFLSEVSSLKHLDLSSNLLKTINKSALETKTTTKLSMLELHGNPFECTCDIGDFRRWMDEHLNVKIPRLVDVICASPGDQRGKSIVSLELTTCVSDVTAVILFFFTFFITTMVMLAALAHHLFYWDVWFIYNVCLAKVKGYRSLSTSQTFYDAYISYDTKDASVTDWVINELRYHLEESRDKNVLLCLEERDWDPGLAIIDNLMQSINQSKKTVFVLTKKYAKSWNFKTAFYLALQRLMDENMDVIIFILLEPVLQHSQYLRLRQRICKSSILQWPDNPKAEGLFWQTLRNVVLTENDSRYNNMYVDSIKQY
Put plainly: HEK-293 hTLR8 transfectant NF-κB SEAP reporter antagonist assay. In kind it is cell-based. The settings on record: for inhibition at 25 µM: HEK293, TLR8 antagonist activity at 25 μM (in some cases assessed at lower concentrations). How it is done:
The HEK-293 hTLR transfectant assay employs HEK293 cells stably transfected with various hTLRs and transiently co-transfected with a plasmid containing an NF-κB driven secreted embryonic alkaline phosphate (SEAP) reporter gene. Stimulation of TLRs activates their downstream signaling pathways and induces nuclear translocation of the transcription factor NF-κB. Reporter gene activity is then measured using a spectrophotometric assay.
For the TLR8 antagonist assays, cells are transiently transfected with the reporter gene on Day 1 per the supplier's instructions. Antagonist compounds are added to the cultures on Day 2 followed by addition of a TLR8 agonist approximately 2 hours later. Cultures are incubated overnight and SEAP activity is measured on Day 3.
In a typical assay, 50,000 HEK239 hTLR8 cells are seeded per culture well and transiently transfected with the SEAP reporter gene. Antagonists are added to cultures in culture medium and […] DMSO over a concentration range of 0.1 nanomolar to 10 micromolar. TLR8 agonists are added to cultures 2 hours later at a fixed concentration (e.g., 1 micromolar or 10 micromolar of Compound A) and cultures are then incubated for 16-24 hrs at 37° C. in a humidified CO incubator. Antagonists are also evaluated for activity in the absence of agonist.
TLR8 antagonist activity at 25 μM is presented in Table 2, where + denotes a % inhibition of 20-39, ++ denotes a % inhibition of 40-59, +++ denotes a % inhibition of 60-79 and ++++ denotes a % inhibition of 80-99. In some cases, antagonist activity was assessed at lower concentrations, for example, at 8.3, 2.8, or less than 1 μM.
TLR8 antagonist activity was measured in a hTLR8 assay format, measuring IC50 values. Compounds were incubated with hTLR8 reporter cells for two hours, then 1 μM Compound A was added to induce TLR8 overnight. IC50 were then calculated.

Where [1] appears, read: IC50, nM, vs. VTX-378 1 μM, agonist VTX-378 at 1 μM.
Setting [2] is: IC50, nM, vs. VTX-378 10 μM, agonist VTX-378 at 10 μM.
The mark [3] stands for this setting: hTLR8 reporter cells, 2 h preincubation, then 1 μM Compound A overnight, read-out: IC50.
[4] abbreviates: agonist VTX-378 at 0.5 μM, read-out: IC50, nM, vs. VTX-378 0.5 μM.

For `CCOC(=O)N1Cc2cc(-c3ccc(C(=O)N4CCCC4)cc3)ccc2N=C(N)C12CC2` [Compound 3020], the IC50 under setting [1] is at least 10000 nM and the IC50 under setting [2] was at least 10000 nM.

For the molecule `CCCN(CCCO)C(=O)C1=Cc2cc(OC)c(-c3ccc(C(=O)N4CCCC4)cc3)cc2N=C(N)C1` [Compound 25, (1E,4E)-2-Amino-N-(3-hydroxypropyl)-7-methoxy-N-propyl-8-(4-(pyrrolidine-1-carbonyl)phenyl)-3H-benzo[b]azepine-4-carboxamide], the inhibition at 25 µM lay within 20 to 39%.

On to `CCOC(=O)C1=Cc2cc(OC)c(-c3ccc(C(=O)N4CCCC4)cc3)cc2N=C(N)C1` [Compound 76, (1E,4E)-ethyl 2-amino-7-methoxy-8-(4-(pyrrolidine-1-carbonyl)phenyl)-3H-benzo[b]azepine-4-carboxylate], for which the inhibition at 25 µM lay in the range of 80 to 99%. Further, the IC50 under setting [3] is at least 10000 nM.

Turning to `COC(=O)C1=Cc2cc(-c3ccc(C(=O)N4CCCC4)cc3)ccc2N=C(N)C1` [Compound 2931], the IC50 is under 1000 nM under setting [1] and 1000 to 10000 nM under setting [2].

For `CC(C)OC(=O)C1=Cc2cc(-c3ccc(C(=O)N4CCCC4)cc3)ccc2N=C(N)C1` [Compound 2984], the IC50 under setting [1] is under 1000 nM and the IC50 under setting [2] lay within 1000 to 10000 nM.

Turning to `CCOC(=O)N1CC(N)=Nc2ccc(-c3ccc(C(=O)N4CCCC4)cc3)cc2C1` [Compound 2954], the IC50 is, setting by setting: under setting [1], at least 10000 nM; under setting [2], at least 10000 nM.

With `CCCN(CCCO)C(=O)C1=Cc2ccc(-c3ccc(C(=O)N4CCCC4)cc3)cc2N=C(NC)C1` [Compound 46, (1E,4E)-N-(3-Hydroxypropyl)-2-(methylamino)-N-propyl-8-(4-(pyrrolidine-1-carbonyl)phenyl)-3H-benzo[b]azepine-4-carboxamide], the inhibition at 25 µM fell in the range of 40 to 59%.

Regarding `CCOC(=O)N1Cc2ccc(-c3ccc(C(=O)N4CCCC4)cc3)cc2N=C(N)C12CC2` [Compound 88, (E)-Ethyl 2-amino-8-(4-(pyrrolidine-1-carbonyl)phenyl)spiro[benzo[e][1,4]diazepine-3,1′-cyclopropane]-4(5H)-carboxylate], the inhibition at 25 µM lay in the range of 20 to 39%. Also, the IC50 under setting [3] was in the range of 5000 to 10000 nM.

In the case of `CCCN(CCCO)C(=O)C1=Cc2ccc(-c3ccc(C(=O)N4CCCC4)cc3)cc2N=C(NCCN(C)C)C1` [Compound 47, (1E,4E)-2-(2-(Dimethylamino)ethylamino)-N-(3-hydroxypropyl)-N-propyl-8-(4-(pyrrolidine-1-carbonyl)phenyl)-3H-benzo[b]azepine-4-carboxamide], the inhibition at 25 µM was in the range of 20 to 39%.

For `CN(C)C(=O)C1=Cc2cc(-c3ccc(C(=O)N4CCCC4)cc3)ccc2N=C(N)C1` [Compound 2986], the IC50 under setting [1] is under 1000 nM and the IC50 under setting [2] was at least 10000 nM.

Turning to `CCOC(=O)C1=Cc2cc(-c3ccc(C(=O)N4CCCC4)cc3)ccc2N=C(N(C)C)C1` [Compound 2929], the IC50 is at least 10000 nM under setting [1] and at least 10000 nM under setting [2].

In the case of `CCOC(=O)C1=Cc2ccc(-c3ccc(C(=O)N4CCCC4)cc3)cc2N2CCN=C2C1` [Compound 90, (E)-ethyl 9-(4-(pyrrolidine-1-carbonyl)phenyl)-2,4-dihydro-1H-benzo[f]imidazo[1,2-a]azepine-5-carboxylate], the inhibition at 25 µM is 60 to 79%.

For the molecule `CCOC(=O)C1=Cc2cc(-c3ccc(C(=O)N4CCCC4)cc3)ccc2-n2cnnc2C1` [Compound 2976], the IC50 under setting [1] is at least 10000 nM and the IC50 under setting [2] is at least 10000 nM.

With `CCOC(=O)C1=Cc2cc(-c3ccc(C(=O)N4CCCC4)cc3)ccc2N=C(NN(C)C)C1` [Compound 2926], the IC50 was 1000 to 10000 nM under setting [1] and at least 10000 nM under setting [2].

For `CCOC(=O)C1=Cc2cc(-c3ccc(C(=O)N4CCCC4)cc3)ccc2-n2c(n[nH]c2=O)C1` [Compound 3000], the IC50 by setting is: under setting [1], at least 10000 nM; under setting [2], at least 10000 nM.

For the molecule `CCCN(CCC)C(=O)C1=Cc2ccc(-c3ccc(C(=O)N4CCCC4)cc3)cc2N=C(NN)C1` [Compound 33, (1E,4E)-2-Hydrazinyl-N,N-dipropyl-8-(4-(pyrrolidine-1-carbonyl)phenyl)-3H-benzo[b]azepine-4-carboxamide], the inhibition at 25 µM is 80 to 99%. Also, under setting [3], the IC50 lay in the range of 1000 to 5000 nM.

As to `CCOC(=O)C1=Cc2cc(-c3ccc(C(=O)N4CCCC4)cc3)ccc2N=C(N)C1C` (stereo not shown) [Compound 3173], the IC50 runs as follows: under setting [1], under 1000 nM; under setting [4], under 1000 nM.

In the case of `CCCN(CCC)C(=O)C1=Cc2cc(OC)c(-c3ccc(C(=O)N(CCC)CCC)cc3)cc2N=C(N)C1` [Compound 12, (1E,4E)-2-Amino-8-(4-(dipropylcarbamoyl)phenyl)-7-methoxy-N,N-dipropyl-3H-benzo[b]azepine-4-carboxamide], the IC50 under setting [3] lay within 1000 to 5000 nM.

For `CCOC(=O)C1=Cc2cc(-c3ccc(C(=O)N4CCCC4)cc3)ccc2N=C(NN)C1` [Compound 2962], the IC50 under setting [1] was at least 10000 nM and the IC50 under setting [2] is at least 10000 nM.

Consider `CCCN(CCC)C(=O)C1=Cc2cc(OC)ccc2N=C(N)C1` [Compound 70, (1E,4E)-2-amino-7-methoxy-N,N-dipropyl-3H-benzo[b]azepine-4-carboxamide], for which the inhibition at 25 µM fell in the range of 40 to 59%.

For the molecule `CCOC(=O)C1=Cc2cc(-c3ccc(C(=O)N4CCCC4)cc3)ccc2N2CCN=C2C1` [Compound 2966], the IC50 under setting [1] is at least 10000 nM and the IC50 under setting [2] is at least 10000 nM.

Regarding `CCOC(=O)C1=Cc2cc(-c3ccc(C(=O)N4CCCC4)cc3)ccc2N=C(NC)C1` [Compound 2922], the IC50 runs as follows: under setting [1], 1000 to 10000 nM; under setting [2], at least 10000 nM.

On to `CCOC(=O)C1=Cc2cc(-c3ccc(C(=O)N4CCCC4)cc3)ccc2N=C(N)C1` [Compound 63, (1E,4E)-Ethyl 2-amino-7-(4-(pyrrolidine-1-carbonyl)phenyl)-3H-benzo[b]azepine-4-carboxylate], for which the inhibition at 25 µM lay in the range of 80 to 99%. Also, the IC50 under setting [3] is under 1000 nM.

For the molecule `CCOC(=O)C1=Cc2cc(-c3ccc(C(=O)N4CCCC4)cc3)ccc2N=C(N)C12CC2` [Compound 3260], the IC50 runs as follows: (IC50, nM, vs. 3M002 10 μM, agonist 3M002 at 10 μM) under 1000 nM; under setting [1], under 1000 nM; under setting [4], under 1000 nM.

For the molecule `CCOC(=O)C1=Cc2cc(OCc3ccccn3)ccc2N=C(N)C1` [Compound 74, (1E,4E)-ethyl 2-amino-7-(pyridin-2-ylmethoxy)-3H-benzo[b]azepine-4-carboxylate], the inhibition at 25 µM fell in the range of 60 to 79%. Moreover, the IC50 under setting [3] was in the range of 1000 to 5000 nM.

For `CCOC(=O)C1=Cc2cc(-c3ccc(C(=O)N4CCCC4)cc3)ccc2-n2ccnc2C1` [Compound 2919], the IC50 by setting is: under setting [1], at least 10000 nM; under setting [2], at least 10000 nM.

Turning to `CCCN(CCC)C(=O)C1=Cc2cc(OC)c(-c3ccc(C(=O)N4CCCC4)cc3)cc2N=C(N)C1` [Compound 65, (1E,4E)-2-Amino-7-methoxy-N,N-dipropyl-8-(4-(pyrrolidine-1-carbonyl)phenyl)-3H-benzo[b]azepine-4-carboxamide], the inhibition at 25 µM was in the range of 60 to 79%. The IC50 under setting [3] is 5000 to 10000 nM.
